Data published in patent US4895589A, “Heterocyclic compounds” (Imperial Chemical Industries PLC, priority 1985, dated 1990).
Converted amounts (≈) assume the structure as drawn.

Assays:
[1] = system: Barley; assay: Whole Plant Screen (2), barley; type: in vivo, Barley (Atem); conditions: BR, 4000 ppm, side-by-side, Table XIII
[2] = Solubility in water; type: physicochemical
[3] = Half life in soil; type: physicochemical
[4] = system: plants (broad species spectrum); assay: Overall plant growth regulating effects in the Examples; type: in vivo; conditions: 1000 ppm rate
[5] = system: Maize; conditions: MZ, 4000 ppm, 2-3 weeks
Protocol: (§1) The compounds were tested for plant growth regulator activity against up to tweleve plant species for various growth effects relevant to plant growth regulation.
(§2) Each chemical was applied at 4000 ppm (4 kg/ha in a 1000 l/ha field volume) using a tracksprayer and a SS8004E (Teejet) nozzle.
(§3) After spray, the plants were grown in a glasshouse with 25° C. day/22° C. night temperatures and supplementary lighting was supplied when necessary (from mercury vapour lamps), to provide a 16 hour photoperiod. The exception to this were the temperate cereals, wheat and barley, which were grown in 16° C. day 13° C. night temperatures
(§4) After 2-3 weeks in the glasshouse, depending on the time of year, the plants were visually assessed for morphological characteristics. Formulations blanks were used as controls to assess the Plants.

[6] = system: Dacrylis glomerata; conditions: DA, 4000 ppm, 2-3 weeks
Protocol: as §1, §2, §3, §4

[7] = system: Vines; conditions: VN, 4000 ppm, 2-3 weeks
Protocol: as §1, §2, §3, §4

[8] = system: Radish; conditions: RA, 4000 ppm, 2-3 weeks
Protocol: as §1, §2, §3, §4

[9] = system: Lettuce; conditions: LT, 4000 ppm, 2-3 weeks
Protocol: as §1, §2, §3, §4

Structure (SMILES) | G = Greening effect [1] | T = Tillering or side shooting [1] | solubility [2] [µg/mL] | half-life [3] [days] | retardant activity on barley and rice versus apples [4] | Retardation score (1-3) with greening (G), apical damage (A), tillering/side shooting (T) [5] [GA] | Retardation score (1-3) with greening (G), apical damage (A), tillering/side shooting (T) [6] [G] | Retardation score (1-3) with greening (G), apical damage (A), tillering/side shooting (T) [7] [GT] | Retardation score (1-3) with greening (G), apical damage (A), tillering/side shooting (T) [8] [G] | I = Interligular or internodal length reduction [1] | Retardation score (1-3) with greening (G), apical damage (A), tillering/side shooting (T) [9] [G]
CCCCC#CC(O)(Cn1cncn1)C(C)(C)C (stereo not shown) [Compound 1, 2,2-dimethyl-3-hydroxy-3-(hex-1-yne-1-yl)-4-(1,2,4-triazol-1-yl)-butane] | 1 (10-30%) | 1 (10-30%) | 1900 (≈ 7.62 mM) | 7 to 14 | considerably more active as a cereal retardant on barley and rice than as a woody species retardant on apples | 2 | 2 | 1 | 2 |  | 
CC(C)CC#CC(O)(Cn1cncn1)C(C)(C)C (stereo not shown) [Compound 7, 2,2-dimethyl-3-hydroxy-3-(4-methyl-pent-1-yne-1-yl)-4-(1,2,4-triazol-1-yl)-butane] | 1 (10-30%) |  |  |  |  |  | 1 |  |  | 3 (61-100%) | 1
